In ChEMBL document CHEMBL1201862, “PubChem BioAssay data set” (2004):
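Test compounds were applied to cells in 96-well plates for 48 hours at 5 doses. GI50: concentration for 50% inhibition of growth.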 Calls of active or inactive are those of the source. Cut-off read from the data, not from the text of the source: active = GI50 up to about 1.1 µM and inactive = higher.

Columns and labels:
Assay in all cases: inhibition of tumour cell growth, NCI panel, 48 h
[1] = system: 786-0
[2] = system: A498
[3] = system: A549
[4] = system: ACHN
[5] = system: BT-549
[6] = system: CAKI-1
[7] = system: CCRF-CEM
[8] = system: COLO 205
[9] = system: DU-145
[10] = system: EKVX
[11] = system: HCC 2998
[12] = system: HCT-116
[13] = system: HCT-15
[14] = system: HL-60
[15] = system: HOP-62
[16] = system: HOP-92
[17] = system: HT-29
[18] = system: Hs-578T
[19] = system: IGROV-1
[20] = system: K562
[21] = system: KM12
[22] = system: LOX IMVI
[23] = system: M14
[24] = system: MCF7
[25] = system: MDA-MB-231
[26] = system: MDA-MB-435
[27] = system: MDA-N
[28] = system: MOLT-4
[29] = system: NCI-H226
[30] = system: NCI-H23
[31] = system: NCI-H460
[32] = system: NCI-H522
[33] = system: NCI/ADR-RES
[34] = system: OVCAR-3
[35] = system: OVCAR-8
[36] = system: PC-3
[37] = system: RPMI-8226
[38] = system: RXF 393
[39] = system: SF-268
[40] = system: SF-295
[41] = system: SF-539
[42] = system: SK-MEL-28
[43] = system: SK-MEL-2
[44] = system: SK-MEL-5
[45] = system: SK-OV-3
[46] = system: SN12C
[47] = system: SNB-19
[48] = system: SNB-75
[49] = system: SR
[50] = system: SW-620
[51] = system: T47D
[52] = system: TK-10
[53] = system: U-251
[54] = system: UACC-257
[55] = system: UACC-62
[56] = system: UO-31
[57] = system: OVCAR-4
[58] = system: OVCAR-5
[59] = system: Malme-3M

Compound: CCOC(=O)[C@@H]1ON2OC(OC3CCCC3(c3ccccc3)c3ccccc3)C(OC(C)=O)[C@H]3OC(=O)[C@@H]1C32 (some centres not stated)
- GI50 [1]: 92.3 µM (inactive)
- GI50 [2]: > 100 µM (inactive)
- GI50 [3]: 47.2 µM (inactive)
- GI50 [4]: 29.9 µM (inactive)
- GI50 [5]: > 100 µM (inactive)
- GI50 [6]: > 100 µM (inactive)
- GI50 [7]: 29.2 µM (inactive)
- GI50 [8]: > 100 µM (inactive)
- GI50 [9]: > 100 µM (inactive)
- GI50 [10]: 89.7 µM (inactive)
- GI50 [11]: 35.1 µM (inactive)
- GI50 [12]: 29.6 µM (inactive)
- GI50 [13]: > 100 µM
- GI50 [14]: 31.3 µM (inactive)
- GI50 [15]: > 100 µM (inactive)
- GI50 [16]: > 100 µM (inactive)
- GI50 [17]: 62.1 µM (inactive)
- GI50 [18]: > 100 µM (inactive)
- GI50 [19]: > 100 µM (inactive)
- GI50 [20]: 97.9 µM (inactive)
- GI50 [21]: > 100 µM (inactive)
- GI50 [22]: 22.1 µM (inactive)
- GI50 [23]: 95.7 µM (inactive)
- GI50 [24]: 21.3 µM (inactive)
- GI50 [25]: > 100 µM (inactive)
- GI50 [26]: 51.1 µM (inactive)
- GI50 [27]: > 100 µM (inactive)
- GI50 [28]: 43.3 µM (inactive)
- GI50 [29]: > 100 µM (inactive)
- GI50 [30]: > 100 µM (inactive)
- GI50 [31]: > 100 µM (inactive)
- GI50 [32]: 21.2 µM (inactive)
- GI50 [33]: > 100 µM (inactive)
- GI50 [34]: 30.5 µM (inactive)
- GI50 [35]: > 100 µM (inactive)
- GI50 [36]: > 100 µM (inactive)
- GI50 [37]: > 100 µM (inactive)
- GI50 [38]: 27.4 µM (inactive)
- GI50 [39]: > 100 µM (inactive)
- GI50 [40]: 31.6 µM (inactive)
- GI50 [41]: 56.6 µM (inactive)
- GI50 [42]: > 100 µM (inactive)
- GI50 [43]: 68.7 µM (inactive)
- GI50 [44]: 42.9 µM (inactive)
- GI50 [45]: > 100 µM (inactive)
- GI50 [46]: > 100 µM (inactive)
- GI50 [47]: > 100 µM (inactive)
- GI50 [48]: > 100 µM (inactive)
- GI50 [49]: > 100 µM (inactive)
- GI50 [50]: > 100 µM (inactive)
- GI50 [51]: 46.6 µM (inactive)
- GI50 [52]: > 100 µM (inactive)
- GI50 [53]: 42.8 µM (inactive)
- GI50 [54]: 52.5 µM (inactive)
- GI50 [55]: > 100 µM (inactive)
- GI50 [56]: 36.4 µM (inactive)

Compound: O=C1/C(=C/c2ccc(Cl)cc2)N=C(c2ccccc2)N1c1nc2c(Cl)cc(Cl)cc2s1
- GI50 [1]: 31.8 µM (inactive)
- GI50 [2]: 18.2 µM (inactive)
- GI50 [3]: 24.5 µM (inactive)
- GI50 [4]: 31.7 µM (inactive)
- GI50 [5]: 28.5 µM (inactive)
- GI50 [6]: 36.5 µM (inactive)
- GI50 [7]: 3.45 µM (inactive)
- GI50 [8]: 37.9 µM (inactive)
- GI50 [9]: 33.7 µM (inactive)
- GI50 [10]: 14.3 µM (inactive)
- GI50 [11]: 40.2 µM (inactive)
- GI50 [12]: 20 µM (inactive)
- GI50 [13]: 32.4 µM
- GI50 [14]: 17.3 µM (inactive)
- GI50 [15]: 22 µM (inactive)
- GI50 [16]: 26.2 µM (inactive)
- GI50 [17]: 23.9 µM (inactive)
- GI50 [18]: 31.5 µM (inactive)
- GI50 [19]: 32.4 µM (inactive)
- GI50 [20]: 25.1 µM (inactive)
- GI50 [21]: 24.3 µM (inactive)
- GI50 [22]: 22.4 µM (inactive)
- GI50 [23]: 34.9 µM (inactive)
- GI50 [24]: 23.9 µM (inactive)
- GI50 [25]: 30.5 µM (inactive)
- GI50 [26]: 24.7 µM (inactive)
- GI50 [27]: 17.5 µM (inactive)
- GI50 [28]: 2.28 µM (inactive)
- GI50 [31]: 28.6 µM (inactive)
- GI50 [33]: 27.2 µM (inactive)
- GI50 [34]: 19.8 µM (inactive)
- GI50 [57]: 30.9 µM (inactive)
- GI50 [58]: 35.2 µM (inactive)
- GI50 [35]: 31.9 µM (inactive)
- GI50 [36]: 18.5 µM (inactive)
- GI50 [37]: 12.5 µM (inactive)
- GI50 [38]: 29.9 µM (inactive)
- GI50 [39]: 43.9 µM (inactive)
- GI50 [40]: 30.6 µM (inactive)
- GI50 [41]: 22.3 µM (inactive)
- GI50 [42]: 44.5 µM (inactive)
- GI50 [43]: 20.8 µM (inactive)
- GI50 [44]: 18.9 µM (inactive)
- GI50 [45]: 28.1 µM (inactive)
- GI50 [46]: 23.1 µM (inactive)
- GI50 [47]: 34.8 µM (inactive)
- GI50 [48]: 35.7 µM (inactive)
- GI50 [49]: 14.3 µM (inactive)
- GI50 [50]: 30.7 µM (inactive)
- GI50 [51]: 25.1 µM (inactive)
- GI50 [52]: 42.1 µM (inactive)
- GI50 [53]: 19.7 µM (inactive)
- GI50 [54]: 41.7 µM (inactive)
- GI50 [55]: 28.4 µM (inactive)
- GI50 [56]: 25.8 µM (inactive)

Compound: c1ccc(C(Oc2noc3ccccc23)c2ccccc2)cc1
- GI50 [1]: 48.8 µM (inactive)
- GI50 [2]: 39 µM (inactive)
- GI50 [3]: 39.5 µM (inactive)
- GI50 [4]: 51.3 µM (inactive)
- GI50 [5]: 32.1 µM (inactive)
- GI50 [6]: 62.2 µM (inactive)
- GI50 [7]: 15.9 µM (inactive)
- GI50 [8]: 16.9 µM (inactive)
- GI50 [9]: 34 µM (inactive)
- GI50 [10]: 40.9 µM (inactive)
- GI50 [11]: 21.7 µM (inactive)
- GI50 [12]: 25.9 µM (inactive)
- GI50 [13]: 31.3 µM
- GI50 [14]: 23.4 µM (inactive)
- GI50 [15]: 88.5 µM (inactive)
- GI50 [16]: 35.6 µM (inactive)
- GI50 [17]: 36.7 µM (inactive)
- GI50 [18]: 66.4 µM (inactive)
- GI50 [19]: 49.9 µM (inactive)
- GI50 [20]: 23.8 µM (inactive)
- GI50 [21]: 29.1 µM (inactive)
- GI50 [22]: 38.7 µM (inactive)
- GI50 [23]: 25.2 µM (inactive)
- GI50 [24]: 37.3 µM (inactive)
- GI50 [25]: 36.2 µM (inactive)
- GI50 [26]: 20.3 µM (inactive)
- GI50 [27]: 19.9 µM (inactive)
- GI50 [28]: 14.8 µM (inactive)
- GI50 [59]: 67.5 µM (inactive)
- GI50 [29]: 50.2 µM (inactive)
- GI50 [30]: 41.7 µM (inactive)
- GI50 [31]: 29.2 µM (inactive)
- GI50 [32]: 26.1 µM (inactive)
- GI50 [33]: 30.8 µM (inactive)
- GI50 [34]: 35.2 µM (inactive)
- GI50 [57]: 22.2 µM (inactive)
- GI50 [58]: 51.4 µM (inactive)
- GI50 [35]: 45.3 µM (inactive)
- GI50 [36]: 34.4 µM (inactive)
- GI50 [38]: 14.9 µM (inactive)
- GI50 [39]: 65.8 µM (inactive)
- GI50 [40]: 33 µM (inactive)
- GI50 [42]: 65.5 µM (inactive)
- GI50 [44]: 18.7 µM (inactive)
- GI50 [45]: 57 µM (inactive)
- GI50 [46]: 35.7 µM (inactive)
- GI50 [47]: 46 µM (inactive)
- GI50 [48]: 12.6 µM (inactive)
- GI50 [49]: 13.2 µM (inactive)
- GI50 [50]: 30.8 µM (inactive)
- GI50 [51]: 3.64 µM (inactive)
- GI50 [52]: 47.6 µM (inactive)
- GI50 [53]: 31.7 µM (inactive)
- GI50 [54]: 29.5 µM (inactive)
- GI50 [55]: 31.8 µM (inactive)
- GI50 [56]: 39.5 µM (inactive)
